Results reported in patent US20140171431A1, “AZOLE HETEROCYCLIC COMPOUND, PREPARATION METHOD, PHARMACEUTICAL COMPOSITION AND USE” (priority 2011, published 2014).

Target: T1, Lp-PLA2 in rabbit serum (Oryctolagus cuniculus, UniProt G1SE06)
T1 construct: from tissue; host or cells: rabbit serum
T1 sequence (G1SE06 22-423): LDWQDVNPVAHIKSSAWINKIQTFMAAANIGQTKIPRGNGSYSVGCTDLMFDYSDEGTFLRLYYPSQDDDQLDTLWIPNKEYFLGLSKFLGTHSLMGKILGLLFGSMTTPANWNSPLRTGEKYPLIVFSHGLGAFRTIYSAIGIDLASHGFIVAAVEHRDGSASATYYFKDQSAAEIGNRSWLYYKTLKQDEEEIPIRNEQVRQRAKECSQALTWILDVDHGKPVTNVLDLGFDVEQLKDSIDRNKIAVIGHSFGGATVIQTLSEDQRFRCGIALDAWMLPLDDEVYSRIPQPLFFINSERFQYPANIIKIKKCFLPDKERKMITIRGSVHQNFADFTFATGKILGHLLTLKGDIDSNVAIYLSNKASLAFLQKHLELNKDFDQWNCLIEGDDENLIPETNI
Experiment: In vitro inhibitory activity towards the enzyme Lp-PLA2 in rabbit serum, [3H]PAF substrate
Assay type: biochemical
Conditions: rabbit serum; for inhibition at 0.1 µM: 100 nM, read-out: inhibition, %
Method: The activities of compounds were measured using [^3H] labeled platelet activating factor ([^3H]PAF, Perkinelmer, Lot NET910) as the substrate. The reaction was carried out in a system containing 50 mmol/L HEPES and 150 mmol/L NaCl (pH 7.4) in a total volume of 200 μl. First, 10 μL rabbit serum and 10 μl DMSO solution of the test compound were added to the system and preincubated for 10 min at 37° C. Then 20 nM [^3H]PAF was added as listed in table 1 to start the reaction and incubated for a further 10 min at 37° C. After that, 600 μl of CHCl3/MeOH (2:1) was added and the resulting mixture was vortex mixed and the reaction was stopped. After settled for a while, the mixture was centrifugated at 12000×g for 15 min. The supernatant was transferred to a new tube and 200 μl of CHCl3 was added. The mixture was mixed by vortexing and then settled or centrifugated for 2 min. A 100 μl portion of the supernatant was then collected for radioactivity intensity measurement.
The inhibition rate was determined by the following equation:
Inhibitory rate (%)=1−(DPMcompound tube−DPMblank tube)/(DPMcontrol tube−DPMblank tube)*100%
(Note: DPM is radioactivity intensity unit.)

| Structure (SMILES) | inhibition at 10 µM [%] | inhibition at 1 µM [%] | inhibition at 0.1 µM [%] |
| --- | --- | --- | --- |
| O=c1nc(SCc2cccc(F)c2F)n(CC2=NOC(c3ccc(-c4ccc(C(F)(F)F)cc4)cc3)N2CCN2CCOCC2)c2c1CCC2 (stereo not drawn) [Example 19, 2-(2,3-difluorobenzylthio)-1-((4-(2-morpholinoethyl)-5-(4′-(trifluoromethyl)biphenyl-4-yl)-4,5-dihydro-1,2,4-oxadiazol-3-yl)methyl)-6,7-dihydro-1H-cyclopenta[d]pyrimidin-4(5H)-one] | 76.8 | 29 |  |
| O=c1nc(SCc2cccc(F)c2F)n(CC2=NOC(c3ccc(-c4ccc(C(F)(F)F)cc4)cc3)N2CCN2CCCCC2)c2c1CCC2 (stereo not drawn) [Example 23, 2-(2,3-difluorobenzylthio)-1-((4-(2-(piperidin-1-yl)ethyl)-5-(4′-(trifluoromethyl)biphenyl-4-yl)-4,5-dihydro-1,2,4-oxadiazol-3-yl)methyl)-6,7-dihydro-1H-cyclopenta[d]pyrimidin-4(5H)-one] | 82.4 | 33 |  |
| CCCCCCCCCCC1NC(Cn2c(SCc3ccc(F)cc3)nc(=O)c3c2CCC3)=NO1 (stereo not drawn) [Example 2, 1-((5-n-decyl-4,5-dihydro-1,2,4-oxadiazol-3-yl)methyl)-2-(4-fluorobenzylthio)-6,7-dihydro-1H-cyclopenta[d]pyrimidin-4(5H)-one] | 82.7 | 26.6 |  |
| CCCCCCCCCCCCn1ccnc1Cn1c(SCc2ccc(F)cc2)nc(=O)c2c1CCC2 [Example 30, 1-((1-n-dodecyl-1H-imidazol-2-yl)methyl)-2-(4-fluorobenzylthio)-6,7-dihydro-1H-cyclopenta[d]pyrimidin-4(5H)-one] | 87.5 | 42.3 |  |
| O=c1nc(SCc2ccc(F)cc2)n(CC2=NOC(c3ccc(-c4ccc(C(F)(F)F)cc4)cc3)N2CCN2CCOCC2)c2c1CCC2 (stereo not drawn) [Example 25, 2-(4-fluorobenzylthio)-1-((4-(2-morpholinoethyl)-5-(4′-(trifluoromethyl)bi-phenyl-4-yl)-4,5-dihydro-1,2,4-oxadiazol-3-yl)meth-yl)-6,7-dihydro-1H-cy-clopenta[d]pyrimidin-4(5H)-one] | 74.3 | 23 |  |
| CCOC(=O)N1CCC(N2C(Cn3c(SCc4ccc(F)cc4)nc(=O)c4c3CCC4)=NOC2c2ccc(-c3ccc(C(F)(F)F)cc3)cc2)CC1 (stereo not drawn) [Example 22] | 63 |  |  |
| Cn1cc(Cc2cn(Cc3nccn3Cc3ccc(-c4ccc(C(F)(F)F)cc4)cc3)c(SCc3ccc(F)cc3)nc2=O)cn1 [Example 29, 2-(4-fluorobenzylthio)-5-((1-methyl-1H-pyrazol-4-yl)methyl)-1-((1-((4′-(trifluoromethyl)biphenyl-4-yl)methyl)-1H-imidazol-2-yl)methyl)pyrimidin-4(1H)-one] |  | 64.9 | 12.6 |
| Cc1cnc(Cn2cc(Cc3cnn(C)c3)c(=O)nc2SCc2ccc(F)cc2)n1Cc1ccc(-c2ccc(C(F)(F)F)cc2)cc1 [Example 41, 2-(4-fluorobenzylthio)-1-((5-methyl-1-((4′-(trifluoromethyl)biphenyl-4-yl)methyl)-1H-imidazol-2-yl)methyl)-5-((1-methyl-1H-pyrazol-4-yl)methyl)pyrimidin-4(1H)-one] |  | 64.9 | 12.6 |
| CCCC1NC(Cn2c(SCc3ccc(F)cc3)nc(=O)c3c2CCC3)=NO1 (stereo not drawn) [Example 6, 2-(4-fluorobenzylthio)-1-((5-n-propyl-4,5-dihydro-1,2,4-oxadiazol-3-yl)methyl)-6,7-dihydro-1H-cyclo-penta[d]pyrimidin-4(5H)-one] | 74 | 16.2 |  |
| O=c1nc(SCc2ccc(F)cc2)n(Cc2ncc(-c3ccccc3)[nH]2)c2c1CCC2 [Example 26, 2-(4-fluorobenzylthio)-1-((5-phenyl-1H-imidazol-2-yl)methyl)-6,7-dihydro-1H-cyclopenta[d]pyrimidin-4(5H)-one] | 7.4 |  |  |
| O=c1nc(SCc2ccc(F)cc2)n(CC2=NOC(c3ccc(-c4ccc(C(F)(F)F)cc4)cc3)N2CCN2CCCCC2)c2c1CCC2 (stereo not drawn) [Example 20, 2-(4-fluorobenzylthio)-1-((4-(2-(piperidin-1-yl)ethyl)-5-(4′-(trifluoromethyl)biphenyl-4-yl)-4,5-dihydro-1,2,4-oxadiazol-3-yl)methyl)-6,7-dihydro-1H-cyclopenta[d]pyrimidin-4(5H)-one] | 86.6 | 31 |  |
| O=c1nc(SCc2ccc(F)cc2)n(Cc2nccn2Cc2ccc(-c3ccc(Cl)cc3)cc2)c2c1CCC2 [Example 32, 1-((1-((4′-chlorobiphenyl-4-yl)methyl)-1H-imidazol-2-yl)methyl)-2-(4-fluorobenzylthio)-6,7-dihydro-1H-cyclopenta[d]pyrimidin-4(5H)-one] |  | 50 | 2.1 |
| CCCCCCCC1NC(Cn2c(SCc3ccc(F)cc3)cc(=O)c3ccccc32)=NO1 (stereo not drawn) [Example 3, 2-(4-fluorobenzylthio)-1-((5-n-heptyl-4,5-dihydro-1,2,4-oxadiazol-3-yl)methyl)quinolin-4(1H)-one] | 12.5 |  |  |
| O=c1nc(SCc2ccc(F)cc2)n(CC2=NOC(c3ccc(-c4ccc(C(F)(F)F)cc4)cc3)N2)c2c1CCC2 (stereo not drawn) [Example 7, 2-(4-fluorobenzylthio)-1-((5-(4′-(trifluoromethyl)biphen-yl-4-yl)-4,5-dihydro-1,2,4-oxadiazol-3-yl)methyl)-6,7-dihydro-1H-cyclo-penta[d]pyrimidin-4(5H)-one] | 60.3 | 25 |  |

The remaining lines, values ahead:

| inhibition at 10 µM [%] | inhibition at 1 µM [%] | inhibition at 0.1 µM [%] | Structure (SMILES) |
| --- | --- | --- | --- |
| 40 |  |  | CCn1c(Cc2ccc(-c3ccc(C(F)(F)F)cc3)cc2)nnc1Cn1c(SCc2ccc(F)cc2)nc(=O)c2c1CCC2 [Example 60, 1-((4-ethyl-5-((4′-(trifluoromethyl)biphenyl-4-yl)methyl)-4H-1,2,4-triazol-3-yl)methyl)-2-(4-fluorobenzylthio)-6,7-dihydro-1H-cyclopenta[d]pyrimidin-4(5H)-one] |
|  | 88.8 | 35.9 | Cn1cc(Cc2cn(Cc3nc4ccccc4n3Cc3ccc(-c4ccc(C(F)(F)F)cc4)cc3)c(SCc3ccc(F)cc3)nc2=O)cn1 [Example 54, 2-(4-fluorobenzylthio)-5-((1-methyl-1H-pyrazol-4-yl)methyl)-1-((1-((4′-(trifluoromethyl)biphenyl-4-yl)methyl)-1H-benzo[d]imidazol-2-yl)methyl)pyrimidin-4 (1H)-one] |
| 33.6 | 21 |  | CCn1c(Cn2c(SCc3ccc(F)cc3)nc(=O)c3c2CCC3)nnc1-c1ccc(-c2ccc(C(F)(F)F)cc2)cc1 [Example 55, 1-((4-ethyl-5-(4′-(trifluoromethyl)biphenyl-4-yl)-4H-1,2,4-triazol-3-yl)methyl)-2-(4-fluorobenzylthio)-6,7-dihydro-1H-cyclopenta[d]pyrimidin-4(5H)-one] |
|  |  | 13.4 | CC(C)(C(=O)O)N1CCN(Cc2nnc(Cn3c(SCc4ccc(F)cc4)nc(=O)c4c3CCC4)n2Cc2ccc(-c3ccc(C(F)(F)F)cc3)cc2)CC1 [Example 89, 2-(4-((5-((2-(4-fluorobenzylthio)-4-oxo-4,5,6,7-tetrahydro-1H-cyclopenta[d]pyrimidin-1-yl)methyl)-4-((4′-(trifluoromethyl)biphenyl-4-yl)methyl)-4H-1,2,4-triazol-3-yl)methyl)piperazin-1-yl)-2-methylpropanoic acid] |
| 94.8 | 32 |  | CCn1c(Cn2cc(Cc3cnn(C)c3)c(=O)nc2SCc2ccc(F)cc2)nnc1-c1ccc(-c2ccc(C(F)(F)F)cc2)cc1 [Example 58, 1-((4-ethyl-5-(4′-(trifluoromethyl)biphenyl-4-yl)-4H-1,2,4-triazol-3-yl)methyl)-2-(4-fluorobenzylthio)-5-((1-methyl-1H-pyrazol-4-yl)methyl)pyrimidin-4 (1H)-one] |
|  | 90.1 | 43.2 | O=c1nc(SCc2ccc(F)cc2)n(Cc2nc3ccccc3n2Cc2ccc(-c3ccc(C(F)(F)F)cc3)cc2)c2c1CCC2 [Example 53, 2-(4-fluorobenzylthio)-1-((1-((4′-(trifluoromethyl)biphenyl-4-yl)methyl)-1H-benzo[d]imidazol-2-yl)methyl)-6,7-dihydro-1H-cyclopenta[d]pyrimidin-4(5H)-one] |
|  |  | 57 | CCOC(=O)c1cnc(Cn2c(SCc3ccc(F)cc3)nc(=O)c3c2CCC3)n1Cc1ccc(-c2ccc(C(F)(F)F)cc2)cc1 [Example 50, ethyl 2-((2-(4-fluorobenzylthio)-4-oxo-4,5,6,7-tetrahydro-1H-cyclopenta[d]pyrimidin-1-yl)methyl)-1-((4′-(trifluoromethyl)biphenyl-4-yl)methyl)-1H-imidazole-5-carboxylate] |
